From patent publication US20020111532A1, “Tris(hydroxymethyl)phosphino compounds as tissue crosslinking agents” (priority 2000, published 2002)

Assay: Shrinkage Temperature Assay (differential scanning calorimetric analysis)
Assay type: physicochemical
Settings: bovine pericardium crosslinked overnight at room temperature; THPP 10 mg/mL in PBS or 0.25% glutaraldehyde
Protocol: Tissue Crosslinking: Bovine pericardium tissue was cut into ˜1 cm^2 samples and rinsed in ˜1 L ultrafiltered H2O for about 30 min with stirring. The samples were then rinsed in PBS for an additional 30 min at room temperature with shaking.
Samples were left in solution overnight at room temperature. Samples were then rinsed 5×30 min in ˜200 mL PBS each rinse, and then either tested immediately or stored in 0.01 M HEPES with 40% isopropyl alcohol until testing.
Shrinkage Temperature Assay: The shrinkage temperature of some crosslinked samples was determined using standard differential scanning calorimetric analysis. Briefly, 2-10 mg of tissue was heated at 10° C. increments under nitrogen. Typically, an endotherm is seen in the range of 60° C.-90° C., and this endotherm is attributed to a shrinkage transition.

In the case of `O=CCCCC=O` [Glutaraldehyde, glutaraldehyde], the “Shrink Onset Temperature” value is reported as 86.04 °C.
